Laboratory results published in US11667629B2, “Isoxazole derivative, preparation method therefor, and use thereof” (SICHUAN KELUN-BIOTECH BIOPHARMACEUTICAL CO., LTD., priority 2017, dated 2023).

Legend:
FXR [1] = molecular target: T1, FXR (Homo sapiens, UniProt Q96RI1); assay: Bile acid receptor FXR coactivator binding assay (LanthaScreen TR-FRET); type: biochemical; settings: for EC50: TR-FRET coactivator assay, four-parameter fit, read-out: EC50 of the compounds on FXR; for Emax: read-out: Relative activation effect
T1 construct: purchased Invitrogen
Description: The Invitrogen⋅LanthaScreen™ TR-FRET Farnesoid X Receptor Coactivator Assay kit was employed to determine the activation effect of the compounds on FXR.
After the receptor was incubated with the test compound at various concentrations at room temperature, the fluorescent-labeled coactivator short peptides and terbium-labeled antibody were added, and the FRET signal was detected after the reaction was complete at room temperature. The group without the receptor protein was employed as a blank, the activation effect (EC50) and maximum activation effect signal value (Emax) of the test compounds on FXR were calculated according to the four-parameter fitting equation: y=E min+(E max−E min)/(1+(x/EC50)^(−Hillslope))

FXR [2] = molecular target: T2, FXR (Homo sapiens, UniProt Q96RI1); assay: Luciferase reporter gene assay (HEK293 cotransfected with FXR and human BSEP luciferase reporter); type: cell-based; settings: for EC50: HEK293, 18 hours incubation; for Emax: HEK293, maximum activation effect, relative signal percentage, blank well = 100%
T2 construct: expressed in transfected cells; host or cells: HEK293
T2 sequence (Q96RI1 1-486): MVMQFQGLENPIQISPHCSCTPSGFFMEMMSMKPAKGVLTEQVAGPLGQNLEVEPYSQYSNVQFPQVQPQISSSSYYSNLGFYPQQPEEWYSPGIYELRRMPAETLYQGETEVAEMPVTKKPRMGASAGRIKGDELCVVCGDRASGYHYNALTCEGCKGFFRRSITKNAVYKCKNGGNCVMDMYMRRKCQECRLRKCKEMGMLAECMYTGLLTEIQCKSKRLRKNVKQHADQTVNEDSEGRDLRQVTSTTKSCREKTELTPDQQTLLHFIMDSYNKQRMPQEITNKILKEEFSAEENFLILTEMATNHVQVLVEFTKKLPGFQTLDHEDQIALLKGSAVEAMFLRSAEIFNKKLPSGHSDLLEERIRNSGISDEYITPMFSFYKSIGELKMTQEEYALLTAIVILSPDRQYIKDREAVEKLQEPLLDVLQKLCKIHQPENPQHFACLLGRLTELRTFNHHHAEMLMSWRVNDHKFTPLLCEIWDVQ
Description: Human embryonic kidney cells HEK293 were cultured in a DMEM medium containing 10% FBS. Plasmids were cotransfected to allow the cells to have over expression of FXR and human BSEP luciferase reporter genes. The transfected cells were digested, resuspended, counted, and plated in a multi-well plate. 10 μL of the test compound at various concentrations was added to the multi-well plate to result in final concentrations of 64 μM, 16 μM, 4 μM, 1 μM, 0.25 μM, 0.0625 μM, 0.0156 μM, 0.0039 μM, 0.000975 μM, 0.000244 μM, 0 μM, and the final concentration of DMSO was 0.5%. After the test compound was incubated with the cells for 18 hours, the Brigh-Glo™ detection reagent was added, and the chemical light unit value (RLU) was detected by a multifunctional automatic microplate reader. Taking the signal value of the blank well (without the test compound) as 100%, the relative signal percentage (%) at each concentration of the test compound was calculated. The SigmaPlot 10 software was employed to fit the EC50 and the maximum activation effect Emax (relative signal percentage) of the test compounds using a four-parameter model.

[3] = Pharmacokinetics (PK) and liver tissue distribution in rats; type: in vivo, rat
Description: The test compound was administered to male SD rats by intravenous (IV) and by gavage (PO), and the pharmacokinetics and liver tissue distribution characteristics of the test compound were evaluated. The doses of the IV and PO administration were respectively 1 mg/kg and 5 mg/kg. The vehicle for IV was 5% DMSO:5% Solutol:90% physiological saline, and the vehicle for PO was 0.5% MC. Blood and liver were collected at various time points after the IV and PO administration. The blood was treated with EDTA. K2 for anticoagulation, and was centrifuged to obtain a plasma sample; the liver was homogenized and stored at −80° C. The plasma and liver samples were analyzed by LC-MS/MS after being subjected to protein precipitation.
By employing the WinNonlin 6.3 software, the pharmacokinetic parameters were calculated according to a non-compartment model.

[4] = IV, 1 mg/kg, male SD rats, plasma
[5] = PO, 5 mg/kg, male SD rats, blood
[6] = PO, 5 mg/kg, male SD rats, liver

SMILES | EC50 (FXR [1]) | Emax (FXR [1]) | EC50 (FXR [2]) | Emax (FXR [2]) | also measured
O=C(O)c1ccc(-c2csc(N3[C@@H]4CC[C@H]3C[C@@H](OCc3c(-c5ccccc5OC(F)(F)F)noc3C3CC3)C4)n2)cn1 [Compound C50, 5-(2-((1R,3r,5S)-3-((5-cyclopropyl-3-(2-(trifluoromethoxy)phenyl)isoxazol-4-yl)methoxy)-8-azabicyclo[3.2.1]octan-8-yl)thiazol-4-yl)picolinic acid] | 31 ± 8 nM | 177% |  |  | 
O=C(O)c1cccc(-c2csc(N3CCC(OCc4c(-c5c(Cl)cccc5Cl)noc4C4CC4)CC3)n2)c1 [Compound C1, 3-(2-(4-((5-cyclopropyl-3-(2,6-dichlorophenyl)isoxazol-4-yl)methoxy)piperidin-1-yl)thiazol-4-yl)benzoic acid] | 178 ± 21 nM |  |  |  | 
O=C(O)c1ccc(-c2csc(N3[C@@H]4CC[C@H]3C[C@@H](OCc3c(-c5ccccc5OC(F)(F)F)noc3C3CC3)C4)n2)c(F)c1 [Compound C43, 4-(2-((1R,3r,5S)-3-((5-cyclopropyl-3-(2-(trifluoromethoxy)phenyl)isoxazol-4-yl)methoxy)-8-azabicyclo[3.2.1]octan-8-yl)thiazol-4-yl)-3-fluorobenzoic acid] |  |  | 37 ± 19 nM | 343% | 
O=C(O)c1ccc(-c2csc(N3[C@@H]4CC[C@H]3C[C@@H](OCc3c(-c5ccccc5OC(F)(F)F)noc3C3CC3)C4)n2)c(C(F)(F)F)c1 [Compound C45, 4-(2-((1R,3r,5S)-3-((5-cyclopropyl-3-(2-(trifluoromethoxy)phenyl)isoxazol-4-yl)methoxy)-8-azabicyclo[3.2.1]octan-8-yl)thiazol-4-yl)-3-(trifluoromethyl)benzoic acid] | 110 ± 21 nM | 113% |  |  | 
Cn1nc(C(=O)O)cc1-c1ccc(N2CCC(OCc3c(-c4c(Cl)cccc4Cl)noc3C3CC3)CC2)cc1 [Compound C3, 5-(4-(4-((5-cyclopropyl-3-(2,6-dichlorophenyl)isoxazol-4-yl)methoxy)piperidin-1-yl)phenyl)-1-methyl-1H-pyrazole-3-carboxylic acid] | 42 ± 7 nM |  |  |  | 
O=C(O)c1csc(-c2csc(N3[C@@H]4CC[C@H]3C[C@@H](OCc3c(-c5ccccc5OC(F)(F)F)noc3C3CC3)C4)n2)c1 [Compound C48, 5-(2-((1R,3r,5S)-3-((5-cyclopropyl-3-(2-(trifluoromethoxy)phenyl)isoxazol-4-yl)methoxy)-8-azabicyclo[3.2.1]octan-8-yl)thiazol-4-yl)thiophene-3-carboxylic acid] |  |  | 39 ± 17 nM | 382% | 
O=C(O)c1ccc(-c2csc(N3[C@@H]4CC[C@H]3C[C@@H](OCc3c(-c5ccccc5OC(F)(F)F)noc3C3CC3)C4)n2)s1 [Compound C35, 5-(2-((1R,3r,5S)-3-((5-cyclopropyl-3-(2-(trifluoromethoxy)phenyl)isoxazol-4-yl)methoxy)-8-azabicyclo[3.2.1]octan-8-yl)thiazol-4-yl)thiophene-2-carboxylic acid] | 13 ± 3 nM | 152% | 91 ± 38 nM | 378% | 
O=C(O)c1ccc(-c2csc(N3CCC(OCc4c(-c5c(Cl)cccc5Cl)noc4C4CC4)CC3)n2)cc1 [Compound C2, 4-(2-(4-((5-cyclopropyl-3-(2,6-dichlorophenyl)isoxazol-4-yl)methoxy)piperidin-1-yl)thiazol-4-yl)benzoic acid] | 12 ± 4 nM | 101% | 20 ± 10 nM | 248% | AUClast [3, 4]: 2409 ± 108 ng·h/mL; Cmax [3, 4]: 4343 ± 172 ng/mL; AUClast (blood) [3, 5]: 1177 ± 304 ng·h/mL; Cmax (blood) [3, 5]: 252 ± 30 ng/mL; AUClast (liver) [3, 6]: 14941 ± 4276 ng·h/g; Cmax (liver) [3, 6]: 3367 ± 830 ng/g; liver enrichment ([3]; PO, 5 mg/kg, rats, liver versus blood exposure): significant liver enrichment effect
O=C(O)c1ccc(-c2csc(N3[C@@H]4CC[C@H]3C[C@@H](OCc3c(-c5ccccc5OC(F)(F)F)noc3C3CC3)C4)n2)cc1F [Compound C44, 4-(2-((1R,3r,5S)-3-((5-cyclopropyl-3-(2-(trifluoromethoxy)phenyl)isoxazol-4-yl)methoxy)-8-azabicyclo[3.2.1]octan-8-yl)thiazol-4-yl)-2-fluorobenzoic acid] | 22 ± 5 nM | 137% | 21 ± 6 nM | 322% | 
O=C(O)c1cc(-c2csc(N3[C@@H]4CC[C@H]3C[C@@H](OCc3c(-c5ccccc5OC(F)(F)F)noc3C3CC3)C4)n2)cs1 [Compound C47, 4-(2-((1R,3r,5S)-3-((5-cyclopropyl-3-(2-(trifluoromethoxy)phenyl)isoxazol-4-yl)methoxy)-8-azabicyclo[3.2.1]octan-8-yl)thiazol-4-yl)thiophene-2-carboxylic acid] |  |  | 19 ± 7 nM | 370% | 
Cc1cc(C(=O)O)ccc1-c1csc(N2[C@@H]3CC[C@H]2C[C@@H](OCc2c(-c4c(Cl)cccc4Cl)noc2C2CC2)C3)n1 [Compound C37, 4-(2-((1R,3r,5S)-3-((5-cyclopropyl-3-(2,6-dichlorophenyl)isoxazol-4-yl)methoxy)-8-azabicyclo[3.2.1]octan-8-yl)thiazol-4-yl)-3-methylbenzoic acid] | 15 ± 1 nM | 139% | 6 ± 2 nM | 411% | 
Cn1nc(-c2ccc(N3CCC(OCc4c(-c5c(Cl)cccc5Cl)noc4C4CC4)CC3)cc2)cc1C(=O)O [Compound C4, 3-(4-(4-((5-cyclopropyl-3-(2,6-dichlorophenyl)isoxazol-4-yl)methoxy)piperidin-1-yl)phenyl)-1-methyl-1H-pyrazole-5-carboxylic acid] | 10 ± 1 nM | 102% | 40 ± 10 nM | 255% | 
Cn1nc(C(=O)O)cc1-c1cccc(N2CCC(OCc3c(-c4c(Cl)cccc4Cl)noc3C3CC3)CC2)c1 [Compound C6, 5-(3-(4-((5-cyclopropyl-3-(2,6-dichlorophenyl)isoxazol-4-yl)methoxy)piperidin-1-yl)phenyl)-1-methyl-1H-pyrazole-3-carboxylic acid] | 206 ± 18 nM |  |  |  | 
O=C(O)c1ccc(-c2csc(N3[C@@H]4CC[C@H]3C[C@@H](OCc3c(-c5ccccc5OC(F)(F)F)noc3C3CC3)C4)n2)cc1 [Compound C41, 4-(2-((1R,3r,5S)-3-((5-cyclopropyl-3-(2-(trifluoromethoxy)phenyl)isoxazol-4-yl)methoxy)-8-azabicyclo[3.2.1]octan-8-yl)thiazol-4-yl)benzoic acid] |  |  | 58 ± 23 nM | 252% | 
Cc1cc(C(=O)O)ccc1-c1csc(N2[C@@H]3CC[C@H]2C[C@@H](OCc2c(-c4ccccc4OC(F)(F)F)noc2C2CC2)C3)n1 [Compound C42, 4-(2-((1R,3r,5S)-3-((5-cyclopropyl-3-(2-(trifluoromethoxy)phenyl)isoxazol-4-yl)methoxy)-8-azabicyclo[3.2.1]octan-8-yl)thiazol-4-yl)-3-methylbenzoic acid] |  |  | 33 ± 18 nM | 320% | 
